Patent publication US12551472B2, “Compositions and methods using trigonelline to produce intracellular nicotinamide adenine dinucleotide (NAD+) for treating or preventing physiological disorders or states” (SOCIETE DES PRODUITS NESTLE S.A., priority 2019, dated 2026)

How the values were obtained:
[1] = tested on: Human Skeletal Muscle Myotubes (HSMM); test: Colorimetric NAD+ quantification in differentiated human primary myoblasts; format: cell-based; conditions: 16 h, different doses (FIG. 4)
Protocol: After one day, the differentiation is induced by a medium change for 4 days. Cells were treated with synthetic trigonelline monohydrate (FIG. 4A) or with Fenugreek seed extract enriched in trigonelline containing 40.45% trigonelline (FIG. 4B) for 16 h at difference doses. NAD^+ was measured using colorimetric NAD^+ quantification assay (Biovision NAD^+/NADH Quantitation Colorimetric Kit #k337-100).

C57BL/6JRj male mice = test: Enzymatic NAD+ measurement in mouse liver after oral gavage; format: in vivo; conditions: equimolar of 300 mg/kg trigonelline, 120 minutes (FIG. 5)
Protocol: 10 weeks C57BL/6JRj male mice received trigonelline (sigma #T5509) or fenugreek seed extract enriched in trigonelline (40.45% trigonelline) by oral gavage (equimolar of 300 mg/kg trigonelline, n=8/group). After 120 minutes treatment, the liver was harvested and flash frozen in liquid nitrogen. NAD^+ was measured in liver using an enzymatic method adapted from Dall, M., et al., Mol Cell Endocrinol, 2018. 473: p. 245-256.

C. elegans [2] = conditions: 1 mM, day 8 and day 11 old worms, vs control (FIG. 7D)
From the text: 45 to 60 worms per condition were manually scored for mobility after poking. Worms that were unable to respond to any repeated stimulation were scored as dead. […] Trigonelline treatment and experimental measurements were started at Day 1 of wild type N2 worm adulthood, in a regimen of chronic exposure til experiments termination.

C. elegans [3] = conditions: 1 mM, chronic exposure from Day 1 adulthood, wild type N2 (FIG. 7A)
Protocol: Worm lifespan tests were performed using about 100 animals per condition and scored manually every other day. Trigonelline treatment and experimental measurements were started at Day 1 of wild type N2 worm adulthood, in a regimen of chronic exposure till experiments termination.

C. elegans [4] = tested on: C. elegans
Protocol: C. elegans mobility test was performed using the Movement Tracker software (Mouchiroud, L. et al. Curr Protoc Neurosci 77, 8.37.1-8.37.21 (2016)). The experiments were repeated at least twice. Trigonelline treatment and experimental measurements were started at Day 1 of wild type N2 worm adulthood, in a regimen of chronic exposure till experiments termination.

[5] = tested on: Human Skeletal Muscle Myotubes (HSMM); conditions: 500 μM, 6 h, relative to control, LC-MS (FIG. 2A)
Protocol: Human primary myoblasts from two different donors were seeded in 6 well plates at a density of 200′000 cells per well in skeletal muscle growth medium (SKM-M, AMSbio). After one day, the differentiation was induced by a medium change for 4 days using differentiation culture medium (Gibco No. 31330-028). Cells were treated with isotopically labelled trigonelline (^13C carbonyl; 3^2H on methyl) for 6 h.
Cell extracts were separated on a Vanquish UHPLC+focused LC system (Thermo Scientific) with a hydrophilic liquid chromatography (HILIC) iHILIC-Fusion(P) column (Hilicon) carrying the dimensions 150×2.1 mm, 5 μm and a guard column (iHILIC-fusion(P), Hilicon) in front. The separation of metabolites was achieved by applying a linear solvent gradient in normal phase at 0.25 mL/min flow rate and 35° C. of temperature.
The eluting metabolites were analyzed with an Orbitrap Fusion Lumos mass spectrometer (Thermo Scientific) with a heated electrospray ionization (H-ESI) source in positive and negative mode at a resolution of 60,000 at m/z of 200. Instrument control and data analysis were conducted using Xcalibur (Thermo Scientific).

C. elegans [6] = conditions: 1 mM trigonelline chloride, day 8 old worms, vs control (FIG. 8)
Protocol: Absolute quantification of the mtDNA copy number in wild type N2 worms was performed by real-time PCR. Relative values for nduo-1, and act-1 were compared within each sample to generate a ratio representing the relative level of mitochondrial DNA per nuclear genome. The average of at least two technical repeats was used for each biological data point. Each experiment was performed on at least ten independent biological samples (individual worms). Trigonelline treatment with 1 mM trigonelline chloride and experimental measurements were started at Day 1 of wild type N2 worm adulthood, in a regimen of chronic exposure till experiments termination.

[7] = tested on: RW1596 (myo-3p::GFP) worms; conditions: 1 mM trigonelline chloride, 11 day old worms vs age matched control
Protocol: RW1596 (myo-3p::GFP) worms were collected at Day 1 (young adults) and at Day 11 (aged animals) for muscle integrity assessment. Worms were immobilized with tetramisole and analyzed by confocal microscopy, to assess the muscle fibers morphology shown by GFP fluorescence imaging. Trigonelline treatment with 1 mM trigonelline chloride and experimental measurements were started at Day 1 of wild type N2 worm adulthood, in a regimen of chronic exposure till experiments termination.

For `C[n+]1cccc(C(=O)O)c1.[OH-]` [chemically synthesized trigonelline], the “NAD+ content compared to the control” value [1] was “significant increase” and the “NAD+ content in the liver compared to the control” value (C57BL/6JRj male mice) was “significant increase”.

In the case of `C[n+]1cccc(C(=O)O)c1` [trigonelline chloride], the “Stimulated mobility score (worms responsive to a physical stimulus)” value (C. elegans [2]) was “more responsive”, the Increase in lifespan (C. elegans [3]) was 21% and the “Distance travelled in advanced aging phase compared to control” value (C. elegans [4]; 1 mM (FIG. 7C)) was “significantly increased”. For the same compound, the “Mean speed compared to the control” value (C. elegans [4]; 1 mM, from day 1 adulthood (FIG. 7B)) was “increased”.

`C[n+]1cccc(C(=O)[O-])c1` [trigonelline, 1-methylpyridin-1-ium-3-carboxylate] was tested, and the “NAD+ levels” value [5] was “enhancement”, the “Mitochondrial expression relative to nuclear expression (nduo-1/act-1, mt/nDNA)” value (C. elegans [6]) was “higher” and the “Myofibrillar structure (GFP-tagged myosin)” value [7] was “improved more organized myofibrillar structure”.
